Measurements as given in patent US20240139147A1, “METHOD FOR IMPROVING BIOAVAILABILITY OF NAD+ DERIVATIVES” (HOBOOMLIFE BIO-TECHNOLOGY (SHENZHEN) CO., LTD., priority 2022, published 2024).

Experiments:
NAD+ [1] = assay: Increasing the level of NAD+ by controlled-release NR microspheres 4, 7, 8, blood NAD+ by HPLC (Example 12); format: in vivo; conditions: SD rats, intragastric; for Content of NAD+ in blood: 100 mg/kg NR and/or 10 mg/kg apigenin
Method: (§1) 28 SD rats weighing about 200 g were purchased, and an experiment was carried out after one week of adaptive feeding. The 28 rats were divided into 7 groups, 4 rats per group (half male and half female). The rats in group 1 were not treated, the rats in group 2 were administered intragastrically with 100 mg/kg of NR, the rats in group 3 were administered intragastrically with 10 mg/kg of apigenin, the rats in group 4 were administered intragastrically with 100 mg/kg of NR and 10 mg/kg of apigenin at the same time, the rats in group 5 were administered intragastrically with the controlled-release NR microspheres 4 containing 100 mg/kg of NR and 10 mg/kg of apigenin, the rats in group 6 were administered intragastrically with the controlled-release NR microspheres 7 containing 100 mg/kg of NR and 10 mg/kg of apigenin, and the rats in group 7 were administered intragastrically with the controlled-release NR microspheres 8 containing 100 mg/kg of NR and 10 mg/kg of apigenin.
Blood was collected from each rat in the groups via the tail vein at time points of 2 h, 2.5 h, 3 h, 3.5 h, 4 h, 4.5 h, 5 h, 5.5 h, and 6 h, respectively, after intragastric administration of corresponding microspheres, and 0.1 mL of blood was collected each time by each rat. After the vein blood collected from the rat in each groups at each time point was treated, the NAD+ level in the blood sample was tested by high performance liquid chromatography (HPLC). The test results of 4 rats in each group were averaged. […] There are time differences between a peak of the releasing of apigenin and a peak of the releasing of NR in the controlled-release […], the controlled-release NR microsphere 7, and the controlled-release NR microsphere 8 that are prepared based on different ratios of apigenin (the CD38 inhibitor) to NR, and the time differences between a peak of the releasing of apigenin and a peak of the releasing of NR in the three microspheres are consistent and are all 0.5-1.5 h.

NAD+ [2] = assay: Increasing the level of NAD+ by controlled-release NR microspheres 4, 11, 12, blood NAD+ by HPLC (Example 18); format: in vivo; conditions: SD rats, intragastric; for NAD+ level in blood: 100 mg/kg NR and/or 10 mg/kg apigenin
Method: as §1, with “of apigenin,” for “of apigenin at the same time,”, “microspheres 2” for “microspheres 4”, “microspheres 11” for “microspheres 7”, “microspheres 12” for “microspheres 8”
Blood was collected from rat the in each groups via the tail vein at time points of 2 h, 2.5 h, 3 h, 3.5 h, 4 h, 4.5 h, 5 h, 5.5 h, and 6 h, respectively, after intragastric administration of corresponding microspheres, and 0.1 mL of blood was collected each time by each rat. After the vein blood collected from each rat in the groups at each time point was treated, the NAD+ level in the blood sample was tested by high performance liquid chromatography (HPLC). The test results of 4 rats in each group were averaged. […] There are time differences between a peak of the releasing of apigenin and a peak of the releasing NR in the controlled-release NR microsphere 4, the controlled-release NR microsphere 11, and the controlled-release NR microsphere 12 that are prepared based on different mass ratios of apigenin (the CD38 inhibitor) to the excipient and different mass ratios of NR to the excipient, and the time differences between a peak of the releasing of apigenin and a peak of the releasing NR in the three microspheres are consistent and are all about 0.5 h to 1.5 h.

[3] = in vivo; cited from earlier work
NAD+ [4] = assay: Increasing the level of NAD+ by controlled-release NR microsphere 4, blood NAD+ by HPLC (Example 6); format: in vivo; conditions: SD rats, intragastric; for NAD+ level in blood: 100 mg/kg NR and/or 10 mg/kg apigenin
Method: as §1, with “20” for “28”, “5” for “7”, “time, and” for “time,”, “of” for “of apigenin, the rats in group 6 were administered intragastrically with the controlled-release NR microspheres 7 containing 100 mg/kg of NR and 10 mg/kg of apigenin, and the rats in group 7 were administered intragastrically with the controlled-release NR microspheres 8 containing 100 mg/kg of NR and 10 mg/kg of”
Blood was collected from the rat in each groups via the tail vein at time points of 2 h, 2.5 h, 3 h, 3.5 h, 4 h, 4.5 h, 5 h, 5.5 h, and 6 h, respectively, after intragastric administration of corresponding microspheres, and 0.1 mL of blood was collected each time by each rat. After the vein blood collected from each rat at each time point was treated, the NAD+ level in the blood sample was tested by high performance liquid chromatography (HPLC). The test results of 4 rats in each group were averaged.

SMILES	level of NAD+ in the rat compared with the blank group (in words) (NAD+ [1])	Content of NAD+ in blood (NAD+ [1]; 2 h) [µM]	Content of NAD+ in blood (NAD+ [1]; 2.5 h) [µM]	Content of NAD+ in blood (NAD+ [1]; 3 h) [µM]	Content of NAD+ in blood (NAD+ [1]; 3.5 h) [µM]	Content of NAD+ in blood (NAD+ [1]; 4 h) [µM]	Content of NAD+ in blood (NAD+ [1]; 4.5 h) [µM]	Content of NAD+ in blood (NAD+ [1]; 5 h) [µM]	Content of NAD+ in blood (NAD+ [1]; 5.5 h) [µM]	Content of NAD+ in blood (NAD+ [1]; 6 h) [µM]	level of NAD+ in the rat compared with the blank group (in words) (NAD+ [2])	NAD+ level in blood (NAD+ [2]; 2 h) [µM]	NAD+ level in blood (NAD+ [2]; 2.5 h) [µM]	NAD+ level in blood (NAD+ [2]; 3 h) [µM]	NAD+ level in blood (NAD+ [2]; 3.5 h) [µM]	NAD+ level in blood (NAD+ [2]; 4 h) [µM]	NAD+ level in blood (NAD+ [2]; 4.5 h) [µM]	NAD+ level in blood (NAD+ [2]; 5 h) [µM]	NAD+ level in blood (NAD+ [2]; 5.5 h) [µM]	NAD+ level in blood (NAD+ [2]; 6 h) [µM]	further results
O=c1cc(-c2ccc(O)cc2)oc2cc(O)cc(O)c12 [Apigenin, apigenin]	can increase the level of NAD+ in the rat	144	153	184	175	163	159	146	139	141	can increase the level of NAD+ in the rat	132	150	179	173	161	157	166	138	140	Metabolic half-life [3]: 91.8 h; level of NAD+ in the rat compared with the blank group (in words) (NAD+ [4]): can increase the level of NAD+ in the rat; NAD+ level in blood (NAD+ [4]; 2 h): 141 µM; NAD+ level in blood (NAD+ [4]; 2.5 h): 148 µM; NAD+ level in blood (NAD+ [4]; 3 h): 176 µM; NAD+ level in blood (NAD+ [4]; 3.5 h): 171 µM; NAD+ level in blood (NAD+ [4]; 4 h): 160 µM; NAD+ level in blood (NAD+ [4]; 4.5 h): 156 µM; NAD+ level in blood (NAD+ [4]; 5 h): 143 µM; NAD+ level in blood (NAD+ [4]; 5.5 h): 144 µM; NAD+ level in blood (NAD+ [4]; 6 h): 138 µM
NC(=O)c1ccc[n+]([C@@H]2O[C@H](CO)[C@@H](O)[C@H]2O)c1 [NR, nicotinamide riboside]	can increase the level of NAD+ in the rat	128	200	180	159	162	157	149	142	134	can increase the level of NAD+ in the rat	142	203	188	154	167	152	145	144	135	level of NAD+ in the rat compared with the blank group (in words) (NAD+ [4]): can increase the level of NAD+ in the rat; NAD+ level in blood (NAD+ [4]; 2 h): 131 µM; NAD+ level in blood (NAD+ [4]; 2.5 h): 196 µM; NAD+ level in blood (NAD+ [4]; 3 h): 181 µM; NAD+ level in blood (NAD+ [4]; 3.5 h): 163 µM; NAD+ level in blood (NAD+ [4]; 4 h): 142 µM; NAD+ level in blood (NAD+ [4]; 4.5 h): 154 µM; NAD+ level in blood (NAD+ [4]; 5 h): 159 µM; NAD+ level in blood (NAD+ [4]; 5.5 h): 139 µM; NAD+ level in blood (NAD+ [4]; 6 h): 141 µM
